Results reported in publication PMC2801564 (Chemistry & biology, 2009).

Biological target: T1, cathepsin L (CatL) (Ixodes ricinus, UniProt A4GTA6)
T1 sequence (A4GTA6 119-335): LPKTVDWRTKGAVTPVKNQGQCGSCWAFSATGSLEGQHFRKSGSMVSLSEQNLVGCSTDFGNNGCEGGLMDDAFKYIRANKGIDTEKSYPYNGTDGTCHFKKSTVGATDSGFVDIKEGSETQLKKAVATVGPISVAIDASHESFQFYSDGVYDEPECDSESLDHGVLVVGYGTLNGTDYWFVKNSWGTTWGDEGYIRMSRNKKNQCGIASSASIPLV
Test: fluorimetric inhibition assay in gut extract
Format: biochemical
Settings: DTT; pH optimum; 35 °C; covalent

CC(C)C[C@H](NC(=O)[C@H]1O[C@@H]1C(=O)O)C(=O)NCCCCNC(=N)N [E-64]
% inhibition: insensitive to E-64 (in contrast to cathepsins B, L and C)
